Measurements as given in patent US11739098B2 (BRISTOL-MYERS SQUIBB COMPANY, priority 2017, dated 2023).

Experiments:
Format in all cases: cell-based
human TLR8 = target: T1, human TLR8 (Homo sapiens, UniProt Q9NR97); experiment: TLR8 inhibition reporter assay (HEK-Blue cells, SEAP reporter, R848 stimulation); conditions: HEK-Blue cells overexpressing human TLR8, SEAP reporter, R848 15.9 μM
T1 construct: host or cells: HEK-Blue cells (HEK293-derived reporter line)
T1 sequence (Q9NR97 27-1041): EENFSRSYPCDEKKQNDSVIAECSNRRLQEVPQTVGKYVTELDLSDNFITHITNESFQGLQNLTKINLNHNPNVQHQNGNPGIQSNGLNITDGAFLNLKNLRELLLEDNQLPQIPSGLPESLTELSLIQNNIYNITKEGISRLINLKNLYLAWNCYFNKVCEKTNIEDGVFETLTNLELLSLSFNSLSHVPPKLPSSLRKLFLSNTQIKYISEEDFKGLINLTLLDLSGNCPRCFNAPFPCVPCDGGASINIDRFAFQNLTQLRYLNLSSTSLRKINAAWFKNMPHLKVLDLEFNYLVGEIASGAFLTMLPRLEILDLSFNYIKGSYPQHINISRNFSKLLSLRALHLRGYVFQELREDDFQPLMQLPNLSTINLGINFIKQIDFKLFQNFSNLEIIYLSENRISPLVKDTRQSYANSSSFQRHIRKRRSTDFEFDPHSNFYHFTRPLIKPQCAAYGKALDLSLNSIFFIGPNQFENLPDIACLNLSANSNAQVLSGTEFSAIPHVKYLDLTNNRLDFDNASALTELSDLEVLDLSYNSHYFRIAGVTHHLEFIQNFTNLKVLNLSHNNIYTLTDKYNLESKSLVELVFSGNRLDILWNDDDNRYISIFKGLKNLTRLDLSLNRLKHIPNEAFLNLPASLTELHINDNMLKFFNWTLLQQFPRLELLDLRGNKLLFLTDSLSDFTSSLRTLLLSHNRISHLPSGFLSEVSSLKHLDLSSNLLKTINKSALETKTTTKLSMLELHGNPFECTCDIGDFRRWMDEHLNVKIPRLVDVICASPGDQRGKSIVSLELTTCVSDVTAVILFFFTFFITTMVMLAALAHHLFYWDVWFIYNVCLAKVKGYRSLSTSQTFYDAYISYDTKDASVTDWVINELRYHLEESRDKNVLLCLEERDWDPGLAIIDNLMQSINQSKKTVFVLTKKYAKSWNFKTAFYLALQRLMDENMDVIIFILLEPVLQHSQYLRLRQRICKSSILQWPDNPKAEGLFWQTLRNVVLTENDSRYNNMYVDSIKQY
Method in brief: (§1)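 HEK-Blue cells overexpressing the receptor, with NF-κB/AP-1-driven SEAP, were pre-treated 30 min at room temperature with compound (0.05 nM–50 μM), then stimulated with gardiquimod 7.5 μM (TLR7), R848 15.9 μM (TLR8) or ODN2006 5 nM (TLR9). SEAP was read after 22 h at 37 °C as percent inhibition.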

human TLR7 = target: T2, human TLR7 (Homo sapiens, UniProt Q9NYK1); experiment: TLR7 inhibition reporter assay (HEK-Blue cells, SEAP reporter, gardiquimod stimulation); conditions: HEK-Blue cells overexpressing human TLR7, SEAP reporter, gardiquimod 7.5 μM
T2 construct: host or cells: HEK-Blue cells (HEK293-derived reporter line)
T2 sequence (Q9NYK1 27-1049): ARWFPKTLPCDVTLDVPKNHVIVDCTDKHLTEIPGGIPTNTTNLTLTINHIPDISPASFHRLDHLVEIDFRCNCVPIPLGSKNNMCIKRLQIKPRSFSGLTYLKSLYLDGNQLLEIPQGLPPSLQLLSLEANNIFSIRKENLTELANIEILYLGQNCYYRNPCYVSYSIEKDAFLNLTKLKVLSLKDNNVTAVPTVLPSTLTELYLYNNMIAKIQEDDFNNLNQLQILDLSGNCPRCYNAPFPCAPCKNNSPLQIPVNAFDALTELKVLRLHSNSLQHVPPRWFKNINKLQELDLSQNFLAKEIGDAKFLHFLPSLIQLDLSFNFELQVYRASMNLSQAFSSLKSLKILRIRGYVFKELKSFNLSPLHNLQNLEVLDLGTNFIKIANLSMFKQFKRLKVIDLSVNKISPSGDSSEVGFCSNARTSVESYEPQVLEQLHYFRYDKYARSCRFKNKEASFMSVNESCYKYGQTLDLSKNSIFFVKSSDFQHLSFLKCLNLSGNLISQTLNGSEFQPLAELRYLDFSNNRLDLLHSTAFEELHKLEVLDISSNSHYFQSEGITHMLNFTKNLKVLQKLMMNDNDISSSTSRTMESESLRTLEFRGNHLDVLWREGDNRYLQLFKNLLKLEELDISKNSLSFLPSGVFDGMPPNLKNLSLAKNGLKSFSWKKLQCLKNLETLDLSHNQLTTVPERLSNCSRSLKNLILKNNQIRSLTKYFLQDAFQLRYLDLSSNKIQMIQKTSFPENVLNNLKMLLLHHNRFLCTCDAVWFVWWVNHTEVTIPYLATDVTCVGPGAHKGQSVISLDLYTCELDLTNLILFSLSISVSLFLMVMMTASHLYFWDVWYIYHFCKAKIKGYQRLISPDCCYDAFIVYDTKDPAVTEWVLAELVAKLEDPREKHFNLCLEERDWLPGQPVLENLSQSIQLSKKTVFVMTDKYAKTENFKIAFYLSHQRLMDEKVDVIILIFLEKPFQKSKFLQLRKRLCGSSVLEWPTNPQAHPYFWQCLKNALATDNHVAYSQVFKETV
Method in brief: as §1

human TLR9 = target: T3, human TLR9 (Homo sapiens, UniProt Q9NR96); experiment: TLR9 inhibition reporter assay (HEK-Blue cells, SEAP reporter, ODN2006 stimulation); conditions: HEK-Blue cells overexpressing human TLR9, SEAP reporter, ODN2006 5 nM
T3 construct: host or cells: HEK-Blue cells (HEK293-derived reporter line)
T3 sequence (Q9NR96 26-1032): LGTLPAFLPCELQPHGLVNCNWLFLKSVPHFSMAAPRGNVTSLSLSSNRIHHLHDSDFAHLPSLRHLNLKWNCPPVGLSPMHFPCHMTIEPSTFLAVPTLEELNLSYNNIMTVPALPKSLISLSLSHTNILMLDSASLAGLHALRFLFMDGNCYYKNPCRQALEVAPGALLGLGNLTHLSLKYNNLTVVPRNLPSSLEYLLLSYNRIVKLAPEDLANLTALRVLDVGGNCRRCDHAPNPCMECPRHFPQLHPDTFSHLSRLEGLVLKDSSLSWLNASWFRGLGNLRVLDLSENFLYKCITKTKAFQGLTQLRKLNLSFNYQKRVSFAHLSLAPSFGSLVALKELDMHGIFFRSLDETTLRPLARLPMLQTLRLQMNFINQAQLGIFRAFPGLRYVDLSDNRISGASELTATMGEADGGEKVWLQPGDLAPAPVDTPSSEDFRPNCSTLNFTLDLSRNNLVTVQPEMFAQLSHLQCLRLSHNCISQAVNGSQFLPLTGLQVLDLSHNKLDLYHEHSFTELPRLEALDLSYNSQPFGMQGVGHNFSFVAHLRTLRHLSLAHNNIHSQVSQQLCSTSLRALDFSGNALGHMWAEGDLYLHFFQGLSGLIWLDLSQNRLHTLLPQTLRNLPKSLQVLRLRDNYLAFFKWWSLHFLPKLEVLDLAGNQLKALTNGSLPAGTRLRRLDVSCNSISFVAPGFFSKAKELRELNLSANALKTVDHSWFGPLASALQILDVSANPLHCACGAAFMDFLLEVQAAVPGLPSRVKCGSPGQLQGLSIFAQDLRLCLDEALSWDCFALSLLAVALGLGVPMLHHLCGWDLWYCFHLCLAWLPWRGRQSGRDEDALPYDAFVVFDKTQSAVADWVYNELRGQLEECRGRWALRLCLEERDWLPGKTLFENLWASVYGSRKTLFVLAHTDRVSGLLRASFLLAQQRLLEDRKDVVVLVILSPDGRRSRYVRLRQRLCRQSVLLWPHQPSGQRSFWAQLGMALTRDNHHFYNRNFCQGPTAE
Method in brief: as §1

| SMILES | IC50 (human TLR8) | IC50 (human TLR7) | IC50 (human TLR9) |
| --- | --- | --- | --- |
| CCc1c(-c2ccnc3[nH]ccc23)[nH]c2ccc(C3CCN(C4CCN(CC(C)C)CC4)CC3)cc12 [Example 849, 4-(3-ethyl-5-(1′-isobutyl-[1,4′-bipiperidin]-4-yl)-1H-indol-2-yl)-1H-pyrrolo[2,3-b]pyridine] | < 0.1 µM | 0.1 to 1 µM | 0.1 to 1 µM |
| CC(C)c1c(-c2ccnc3[nH]ncc23)[nH]c2ccc(C3CCN(C(=O)CN4CCC[C@H]4C(N)=O)CC3)cc12 [Example 584, (S)-1-(2-(4-(3-isopropyl-2-(1H-pyrazolo[3,4-b]pyridin-4-yl)-1H-indol-5-yl)piperidin-1-yl)-2-oxoethyl)pyrrolidine-2-carboxamide] | < 0.1 µM | < 0.1 µM | 1 to 50 µM |
| CC(C)c1c(-c2cn3ccnc3cc2C(F)(F)F)[nH]c2ccc(C3CCN(CC(=O)N(C)C)CC3)cc12 [Example 427, 2-(4-(3-isopropyl-2-(7-(trifluoromethyl)imidazo[1,2-a]pyridin-6-yl)-1H-indol-5-yl)piperidin-1-yl)-N,N-dimethylacetamide] | < 0.1 µM | 0.1 to 1 µM | 1 to 50 µM |
| Cc1cc(-c2[nH]c3ccc(C4CCN(C5CCS(=O)(=O)CC5)CC4)cc3c2C(C)C)cn2ccnc12 [Example 799, 4-(4-(3-isopropyl-2-(8-methylimidazo[1,2-a]pyridin-6-yl)-1H-indol-5-yl)piperidin-1-yl)tetrahydro-2H-thiopyran 1,1-dioxide] | < 0.1 µM | < 0.1 µM | 0.1 to 1 µM |
| CC(C)(O)CC(=O)N1CCC(c2ccc3[nH]c(-c4cc(F)c5nccn5c4)c(CC(F)F)c3c2)CC1 [Example 606, 1-(4-(3-(2,2-difluoroethyl)-2-(8-fluoroimidazo[1,2-a]pyridin-6-yl)-1H-indol-5-yl)piperidin-1-yl)-3-hydroxy-3-methylbutan-1-one] | > 3.13 µM | 0.1 to 1 µM | 1 to 50 µM |
| Cc1ccnc2c1c(-c1[nH]c3ccc(C4CCN(CC(=O)N(C)C)CC4)cc3c1C(C)C)cn2C [Example 285, 2-(4-(2-(1,4-dimethyl-1H-pyrrolo[2,3-b]pyridin-3-yl)-3-isopropyl-1H-indol-5-yl)piperidin-1-yl)-N,N-dimethylacetamide] | < 0.1 µM | < 0.1 µM | 1 to 50 µM |
| Cc1c(-c2ncnc3[nH]ncc23)[nH]c2ccc(C3CCN(C4CCN(C(C)C)CC4)CC3)cc12 [Example 816, 4-(5-(1′-isopropyl-[1,4′-bipiperidin]-4-yl)-3-methyl-1H-indol-2-yl)-1H-pyrazolo[3,4-d]pyrimidine] | < 0.1 µM | 0.1 to 1 µM | < 0.1 µM |
| CNCC(=O)N1CCC(c2ccc3[nH]c(-c4cn5cc(C)nc5cc4C)c(C(C)C)c3c2)CC1 [Example 510, 1-(4-(2-(2,7-dimethylimidazo[1,2-a]pyridin-6-yl)-3-isopropyl-1H-indol-5-yl)piperidin-1-yl)-2-(methylamino)ethan-1-one] | 1 to 50 µM | < 0.1 µM | 0.1 to 1 µM |
| CC(C)c1c(-c2ccc3nccn3c2)[nH]c2ccc(C3CCN(CC(=O)N(C)C)CC3)cc12 [Example 444, 2-(4-(2-(imidazo[1,2-a]pyridin-6-yl)-3-isopropyl-1H-indol-5-yl)piperidin-1-yl)-N,N-dimethylacetamide] | < 0.1 µM | < 0.1 µM | 0.1 to 1 µM |
| CCc1c(-c2ccnc3[nH]ncc23)[nH]c2ccc(C3CCN(CC4(N)CC4)CC3)cc12 [Example 657, 1-((4-(3-ethyl-2-(1H-pyrazolo[3,4-b]pyridin-4-yl)-1H-indol-5-yl)piperidin-1-yl)methyl)cyclopropan-1-amine] | < 0.1 µM | 0.1 to 1 µM | 0.1 to 1 µM |
| CC(C)c1c(-c2ccc3nccnc3c2)[nH]c2ccc(C3CCNCC3)cc12 [Example 165, 6-(3-isopropyl-5-(piperidin-4-yl)-1H-indol-2-yl)quinoxaline] | 0.1 to 1 µM | < 0.1 µM | 1 to 50 µM |
| CC(C)c1c(-c2cn3ccnc3cc2Cl)[nH]c2ccc(C3CCN(CC(=O)N(C)C)CC3)cc12 [Example 428, 2-(4-(2-(7-chloroimidazo[1,2-a]pyridin-6-yl)-3-isopropyl-1H-indol-5-yl)piperidin-1-yl)-N,N-dimethylacetamide] | < 0.1 µM | < 0.1 µM | 1 to 50 µM |
| Cc1c(-c2ccnc3[nH]ccc23)[nH]c2ccc(C3CCN(C4CCN(C(C)C)CC4)CC3)cc12 [Example 813, 4-(5-(1′-isopropyl-[1,4′-bipiperidin]-4-yl)-3-methyl-1H-indol-2-yl)-1H-pyrrolo[2,3-b]pyridine] | < 0.1 µM | < 0.1 µM | < 0.1 µM |
| Cc1n[nH]c2nccc(-c3[nH]c4ccc(C5CCNCC5)cc4c3C(C)C)c12 [Example 227, 4-(3-isopropyl-5-(piperidin-4-yl)-1H-indol-2-yl)-3-methyl-1H-pyrazolo[3,4-b]pyridine] | < 0.1 µM | < 0.1 µM | 0.1 to 1 µM |
